Results taken from article PMC4878759 (PLoS ONE, 2016).

Target: T1, ENaC (Homo sapiens, UniProt P37088+P51168+P51170)
T1 construct: endogenous in cells; host or cells: T84 cells, ENaC induced with 2 mM sodium butyrate for 2 days
T1 sequence (P37088 1-669): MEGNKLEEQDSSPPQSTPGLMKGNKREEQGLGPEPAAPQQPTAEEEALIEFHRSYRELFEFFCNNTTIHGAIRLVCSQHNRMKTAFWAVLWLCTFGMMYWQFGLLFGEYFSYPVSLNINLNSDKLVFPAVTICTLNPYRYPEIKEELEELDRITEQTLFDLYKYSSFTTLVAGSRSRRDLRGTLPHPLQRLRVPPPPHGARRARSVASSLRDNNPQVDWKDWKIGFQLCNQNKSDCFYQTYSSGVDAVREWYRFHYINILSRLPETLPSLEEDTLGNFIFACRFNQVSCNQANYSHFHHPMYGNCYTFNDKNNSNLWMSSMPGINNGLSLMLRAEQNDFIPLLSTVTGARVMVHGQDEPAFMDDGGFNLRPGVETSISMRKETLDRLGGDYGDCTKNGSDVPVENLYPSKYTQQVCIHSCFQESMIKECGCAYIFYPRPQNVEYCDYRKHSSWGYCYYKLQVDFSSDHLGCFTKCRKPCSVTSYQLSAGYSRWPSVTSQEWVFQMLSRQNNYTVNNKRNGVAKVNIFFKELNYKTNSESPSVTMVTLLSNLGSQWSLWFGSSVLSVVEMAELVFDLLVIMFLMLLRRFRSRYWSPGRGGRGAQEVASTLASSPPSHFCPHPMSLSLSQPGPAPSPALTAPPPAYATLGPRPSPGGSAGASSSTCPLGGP
T1 sequence (P51168 1-640): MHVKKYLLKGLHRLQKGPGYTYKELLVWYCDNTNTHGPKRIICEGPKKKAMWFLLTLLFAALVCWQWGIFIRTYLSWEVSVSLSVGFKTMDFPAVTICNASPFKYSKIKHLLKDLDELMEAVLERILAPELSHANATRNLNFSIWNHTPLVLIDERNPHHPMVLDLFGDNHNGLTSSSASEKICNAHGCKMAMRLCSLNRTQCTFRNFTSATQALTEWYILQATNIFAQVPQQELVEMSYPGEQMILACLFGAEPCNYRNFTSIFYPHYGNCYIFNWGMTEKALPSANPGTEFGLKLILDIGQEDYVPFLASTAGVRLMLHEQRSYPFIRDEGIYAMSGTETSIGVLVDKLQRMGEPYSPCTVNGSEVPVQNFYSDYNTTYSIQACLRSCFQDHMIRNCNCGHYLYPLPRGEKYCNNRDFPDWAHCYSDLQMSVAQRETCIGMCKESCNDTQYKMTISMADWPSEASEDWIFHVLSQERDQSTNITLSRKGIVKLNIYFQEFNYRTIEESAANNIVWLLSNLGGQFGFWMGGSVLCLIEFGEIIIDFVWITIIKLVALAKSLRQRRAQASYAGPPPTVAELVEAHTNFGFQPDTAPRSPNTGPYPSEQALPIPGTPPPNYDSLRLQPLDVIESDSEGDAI
T1 sequence (P51170 1-649): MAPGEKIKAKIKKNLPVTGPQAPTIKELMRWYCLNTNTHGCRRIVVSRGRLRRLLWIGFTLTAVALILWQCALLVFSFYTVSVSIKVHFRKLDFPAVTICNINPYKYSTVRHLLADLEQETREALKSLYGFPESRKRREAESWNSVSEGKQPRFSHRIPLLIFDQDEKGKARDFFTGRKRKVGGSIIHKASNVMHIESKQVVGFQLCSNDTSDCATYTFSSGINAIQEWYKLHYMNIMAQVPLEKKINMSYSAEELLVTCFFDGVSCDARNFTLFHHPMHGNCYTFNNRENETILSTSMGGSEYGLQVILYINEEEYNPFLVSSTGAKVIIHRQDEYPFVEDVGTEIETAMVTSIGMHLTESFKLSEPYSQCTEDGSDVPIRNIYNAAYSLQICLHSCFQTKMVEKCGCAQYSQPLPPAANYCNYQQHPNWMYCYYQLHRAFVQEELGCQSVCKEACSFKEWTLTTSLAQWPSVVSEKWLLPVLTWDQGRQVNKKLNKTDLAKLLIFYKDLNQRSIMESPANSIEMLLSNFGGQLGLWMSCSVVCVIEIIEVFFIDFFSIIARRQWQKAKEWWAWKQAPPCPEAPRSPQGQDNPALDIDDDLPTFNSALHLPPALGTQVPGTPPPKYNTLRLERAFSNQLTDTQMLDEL
Experiment: Short circuit current in T84 cells expressing ENaC
Type: cell-based
Conditions: up to 30 μM
Description: Snapwell inserts containing ANO1, ANO2 or CFTR expressing FRT cells, ENaC expressing T-84 cells or the human primary airway epithelial cells were mounted in Ussing chambers (Physiologic Instruments, San Diego, CA). To induce transcriptional ENaC induction, the polarized T84 cells were incubated with 2 mM sodium butyrate for 2 days. To increase the functional expression of ANO1, the human airway epithelial cells were treated with IL-4 (10 ng/mL) for 2 days. For T-84 and the human primary airway epithelial cells, the apical and basolateral bath were filled with HCO3^—buffered solution containing (in mM): 120 NaCl, 5 KCl, 1 MgCl2, 1 CaCl2, 10 D-glucose, 2.5 HEPES, and 25 NaHCO3 (pH 7.4). For FRT cells, the basolateral bath was filled with the HCO3^—buffered solution and the apical bath was filled with a half-Cl^- solution. In the half-Cl^- solution 65 mM NaCl in the HCO3^—buffered solution was replaced by Na-gluconate. […] ATP was applied to the apical bath solution to induce intracellular calcium increase. […] Apical membrane currents were measured with an EVC4000 Multi-Channel V/I Clamp (World Precision Instruments, Sarasota, FL) and PowerLab 4/35 (AD Instruments, Castle Hill, Australia). Data were analyzed using Labchart Pro 7 (AD Instruments). The sampling rate was 4 Hz.
ANO1 was activated by either 10 μM Eact, an ANO1 activator, or 100 μM ATP.

## COc1ccccc1C=NNC(=O)COc1ccc(Cl)cc1C [Ani9, 2-(4-chloro-2-methylphenoxy)-N-[(2-methoxyphenyl)methylideneamino]-acetamide]
  effect on ENaC channel activity: no effect
